Measured values published in paper PMC5680308, “Binding of mycotoxins to proteins involved in neuronal plasticity: a combined in silico/wet investigation” (Scientific Reports, 2017).
Like-named read-outs stand apart in the source and are kept apart here.

Assays:
[1] = target: T1, Human recombinant neuroligin 4-X linked (NLGN4X) (Homo sapiens, UniProt Q8N0W4); experiment: biochemical; format: binding; settings: for Kd: read-out: dissociation constant (kD)
[2] = target: T2, human recombinant acetylcholinesterase (AChE) (Homo sapiens, UniProt P22303); experiment: Fluorescence steady-state binding experiments (intrinsic Trp fluorescence); settings: pH 7.4
T2 construct: purchased Sigma Aldrich (Milano, Italy)

[3] = target: T1, Human recombinant neuroligin 4-X linked (NLGN4X); experiment: Microscale thermophoresis (MST) assay; format: binding
[4] = target: T2, human recombinant acetylcholinesterase (AChE); experiment: Microscale thermophoresis (MST) assay; format: binding

T2 sequence (P22303 32-614): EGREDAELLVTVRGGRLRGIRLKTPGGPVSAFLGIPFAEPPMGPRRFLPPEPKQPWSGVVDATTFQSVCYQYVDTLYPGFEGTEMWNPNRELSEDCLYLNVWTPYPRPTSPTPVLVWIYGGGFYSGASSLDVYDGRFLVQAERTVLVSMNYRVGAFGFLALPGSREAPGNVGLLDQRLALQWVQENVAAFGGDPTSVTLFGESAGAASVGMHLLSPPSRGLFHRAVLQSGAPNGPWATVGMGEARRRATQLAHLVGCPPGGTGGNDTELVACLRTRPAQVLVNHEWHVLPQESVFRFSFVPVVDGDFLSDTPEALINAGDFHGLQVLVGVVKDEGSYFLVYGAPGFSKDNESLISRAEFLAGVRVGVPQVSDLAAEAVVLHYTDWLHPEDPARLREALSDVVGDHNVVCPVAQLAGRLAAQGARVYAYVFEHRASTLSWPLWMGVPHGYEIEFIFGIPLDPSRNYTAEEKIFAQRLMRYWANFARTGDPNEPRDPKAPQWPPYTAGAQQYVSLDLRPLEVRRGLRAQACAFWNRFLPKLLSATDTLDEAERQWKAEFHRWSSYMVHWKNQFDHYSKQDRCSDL
T1 sequence (Q8N0W4 42-676 limits assumed): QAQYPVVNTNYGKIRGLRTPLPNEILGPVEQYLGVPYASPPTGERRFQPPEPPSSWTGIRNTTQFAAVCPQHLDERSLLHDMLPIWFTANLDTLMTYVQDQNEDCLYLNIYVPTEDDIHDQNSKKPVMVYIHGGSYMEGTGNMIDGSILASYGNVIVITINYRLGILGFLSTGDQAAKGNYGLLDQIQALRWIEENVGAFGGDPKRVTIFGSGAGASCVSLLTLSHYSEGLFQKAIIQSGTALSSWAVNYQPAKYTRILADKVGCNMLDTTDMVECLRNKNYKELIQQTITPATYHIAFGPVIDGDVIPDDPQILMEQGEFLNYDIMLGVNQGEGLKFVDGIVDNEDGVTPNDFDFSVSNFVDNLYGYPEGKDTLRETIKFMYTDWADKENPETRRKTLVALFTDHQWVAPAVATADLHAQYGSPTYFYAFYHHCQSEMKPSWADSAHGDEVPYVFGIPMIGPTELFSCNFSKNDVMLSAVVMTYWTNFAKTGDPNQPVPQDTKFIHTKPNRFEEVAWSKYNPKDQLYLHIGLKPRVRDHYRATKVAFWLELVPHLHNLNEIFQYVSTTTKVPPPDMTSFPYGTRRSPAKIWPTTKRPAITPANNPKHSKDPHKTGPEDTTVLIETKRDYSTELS

Aflatoxin B1
decrease of the fluorescence emission spectrum at increasing concentrations of the toxin [1]: did not show a significant decrease
effect on Trp fluorescence emission at increasing toxin concentration [2]: a quenching effect was registered
interaction with the protein in MST ([3]; pH 7.4): no evidence of the interaction
Kd ([4]; pH 8): 8400 ± 694 nM

CN1C(=O)[C@]23CC4=CC=C[C@H](O)[C@H]4N2C(=O)[C@@]1(CO)SS3 [Gliotoxin, gliotoxin]
Kd ([1]; Trp fluorescence emission variation, PBS buffer pH 7.4, 25 °C, non-linear regression): 307 nM
quenching / decrease of the protein fluorescence emission intensity ([1]; pH 7.4): about 17%
Kd ([3]; MST, PBS buffer pH 7.4, 25 °C, read-out: kD): 1520 nM
interaction with the protein in MST ([4]; result in words, data not shown): did not confirm this prediction

CC1=C[C@H]2O[C@@H]3[C@H](O)C[C@](C)([C@@]2(CO)[C@H](O)C1=O)[C@]31CO1 [Deoxynivalenol, deoxynivalenol]
quenching / decrease of the protein fluorescence emission intensity ([1]; pH 7.4): 17%

COc1cc2c(c3oc(=O)c4c(c13)CCC4=O)[C@@H]1CCO[C@@H]1O2 [Aflatoxin B2, aflatoxin B2]
quenching / decrease of the protein fluorescence emission intensity ([1]; pH 7.4): about 11%
Kd ([1]; pH 7.4): 10.3 nM
Kd ([3]; pH 7.4, read-out: kD for the binding site at higher affinity): 56.6 nM
interaction with the protein in MST [4]: did not confirm this prediction
